{
  "source": "patent US5817692A",
  "about": "“Endoperoxides useful as antiparasitic agents” (priority 1996, dated 1998)",
  "key": {"L929 cells": {"tested_on": "L929 cells", "experiment": "cytotoxicity to L929 cells, MTT assay (viability and replication)", "format": "cell-based", "parameters": "Toxicity, Mean: unit not given here", "settings": "for Toxicity, Score / Toxicity, Mean / inhibition at 0.1 µM / inhibition at 1 µM / inhibition at 10 µM / inhibition at 50 µM: L929 cells; for Toxicity, Mean: MTT; for inhibition at 0.1 µM / inhibition at 1 µM / inhibition at 10 µM / inhibition at 50 µM: Mus musculus, read-out: Toxicity, % of control (inhibition)", "protocol": "Toxoplasma gondii is the causative agent of cerebral toxoplasmic encephalitis, an AIDS-related opportunistic infection. The biological activity of the endoperoxide JHU 2886 of the present invention was measured against Toxoplasma gondii cultured in L929 cells.\nMore specifically, the cytotoxicity of synthetic organic endoperoxide JHU 2886 was tested in L929 cells by measuring the viability and replication of exposed cells. The cytotoxicity of the compound to the cultured cells was measured using the MTT assay (Promega kit), according to the procedure of Carmichael et al. (18). MTT is an abbreviation for [3-(4,5-dimethylthiazol-2-yl)-2,5-dephenyltetrazolium bromide].\nThis compound is referred to as JHU 2886 in Table 1. In this experiment atovaquone and artemisinin were used as positive controls. Atovaquone is a broad-spectrum anti-infective drug having antimalarial and antitoxoplasmosis activity (19).\n^1 The cytotoxicity of each compound for the cultured cells was\nmeasured using the MTT assay (Promega kit) and inhibition of the […]"}, "Toxoplasma gondii": {"tested_on": "Toxoplasma gondii", "experiment": "inhibition of intracellular replication of T. gondii in infected L929 cells, uracil incorporation assay", "format": "cell-based", "parameters": "Activity, Mean: unit not given here", "settings": "for Activity, Mean: uracil incorporation; for inhibition at 1 µM / inhibition at 10 µM / inhibition at 50 µM / inhibition at 0.1 µM: Toxoplasma gondii, L929, read-out: Activity, % of control (inhibition)", "protocol": "Toxoplasma gondii is the causative agent of cerebral toxoplasmic encephalitis, an AIDS-related opportunistic infection. The biological activity of the endoperoxide JHU 2886 of the present invention was measured against Toxoplasma gondii cultured in L929 cells. The inhibitory activity of the synthetic organic endoperoxide was tested by measuring the intracellular replication of T. gondii in infected L929 cells. The inhibition of the intracellular replication of T. gondii was determined using the uracil incorporation assay (20). […] This compound is referred to as JHU 2886 in Table 1. In this experiment atovaquone and artemisinin were used as positive controls. Atovaquone is a broad-spectrum anti-infective drug having antimalarial and antitoxoplasmosis activity (19). | measured using the MTT assay (Promega kit) and inhibition of the | intracellular replication of T. gondii was determined using the uracil | incorporation assay."}},
  "note": "Like-named read-outs stand apart in the source and are kept apart here.",
  "data": [
    {"smiles": "c1ccc(C23CCCC(c4ccccc4)(CC2)OO3)cc1", "note": "[JHU 2886]", "values": [
      {"measurement": "toxicity in L929 cells, in words", "setting": "L929 cells; 50 μM", "result": "some toxicity"},
      {"measurement": "toxicity in L929 cells, in words", "setting": "L929 cells; 24, 48 and 72 hours, concentrations as high as 10 μM", "result": "little toxicity"},
      {"measurement": "Toxicity, Score", "setting": "L929 cells; 24 hours, dose 0.1 μM", "result": "1 (≤20%)"},
      {"measurement": "Toxicity, Mean", "setting": "L929 cells; 24 hours, dose 0.1 μM", "result": 0.129},
      {"measurement": "Toxicity, Score", "setting": "L929 cells; 24 hours, dose 1.0 μM", "result": 0},
      {"measurement": "Toxicity, Mean", "setting": "L929 cells; 24 hours, dose 1.0 μM", "result": 0.133},
      {"measurement": "Toxicity, Score", "setting": "L929 cells; 24 hours, dose 10.0 μM", "result": 0},
      {"measurement": "Toxicity, Mean", "setting": "L929 cells; 24 hours, dose 10.0 μM", "result": 0.130},
      {"measurement": "Toxicity, Score", "setting": "L929 cells; 24 hours, dose 50.0 μM", "result": "2 (>20%-≤40%)"},
      {"measurement": "Toxicity, Mean", "setting": "L929 cells; 24 hours, dose 50.0 μM", "result": 0.089},
      {"measurement": "Toxicity, Score", "setting": "L929 cells; 48 hours, dose 0.1 μM", "result": 0},
      {"measurement": "Toxicity, Mean", "setting": "L929 cells; 48 hours, dose 0.1 μM", "result": 0.227},
      {"measurement": "Toxicity, Score", "setting": "L929 cells; 48 hours, dose 1.0 μM", "result": 0},
      {"measurement": "Toxicity, Mean", "setting": "L929 cells; 48 hours, dose 1.0 μM", "result": 0.219},
      {"measurement": "Toxicity, Score", "setting": "L929 cells; 48 hours, dose 10.0 μM", "result": 0},
      {"measurement": "Toxicity, Mean", "setting": "L929 cells; 48 hours, dose 10.0 μM", "result": 0.217},
      {"measurement": "Toxicity, Score", "setting": "L929 cells; 48 hours, dose 50.0 μM", "result": "2 (>20%-≤40%)"},
      {"measurement": "Toxicity, Mean", "setting": "L929 cells; 48 hours, dose 50.0 μM", "result": 0.147},
      {"measurement": "Toxicity, Score", "setting": "L929 cells; 72 hours, dose 0.1 μM", "result": 0},
      {"measurement": "Toxicity, Mean", "setting": "L929 cells; 72 hours, dose 0.1 μM", "result": 0.479},
      {"measurement": "Toxicity, Score", "setting": "L929 cells; 72 hours, dose 1.0 μM", "result": 0},
      {"measurement": "Toxicity, Mean", "setting": "L929 cells; 72 hours, dose 1.0 μM", "result": 0.460},
      {"measurement": "Toxicity, Score", "setting": "L929 cells; 72 hours, dose 10.0 μM", "result": 0},
      {"measurement": "Toxicity, Mean", "setting": "L929 cells; 72 hours, dose 10.0 μM", "result": 0.448},
      {"measurement": "Toxicity, Score", "setting": "L929 cells; 72 hours, dose 50.0 μM", "result": "2 (>20%-≤40%)"},
      {"measurement": "Toxicity, Mean", "setting": "L929 cells; 72 hours, dose 50.0 μM", "result": 0.275},
      {"measurement": "inhibition at 0.1 µM", "setting": "L929 cells; 24 hours, dose 0.1 μM", "result": 0.26, "unit": "%"},
      {"measurement": "inhibition at 1 µM", "setting": "L929 cells; 24 hours, dose 1.0 μM", "result": 0, "unit": "%"},
      {"measurement": "inhibition at 10 µM", "setting": "L929 cells; 24 hours, dose 10.0 μM", "result": 0, "unit": "%"},
      {"measurement": "inhibition at 50 µM", "setting": "L929 cells; 24 hours, dose 50.0 μM", "result": 31.2, "unit": "%"},
      {"measurement": "inhibition at 0.1 µM", "setting": "L929 cells; 48 hours, dose 0.1 μM", "result": 0, "unit": "%"},
      {"measurement": "inhibition at 1 µM", "setting": "L929 cells; 48 hours, dose 1.0 μM", "result": 0, "unit": "%"},
      {"measurement": "inhibition at 10 µM", "setting": "L929 cells; 48 hours, dose 10.0 μM", "result": 0, "unit": "%"},
      {"measurement": "inhibition at 50 µM", "setting": "L929 cells; 48 hours, dose 50.0 μM", "result": 30.4, "unit": "%"},
      {"measurement": "inhibition at 0.1 µM", "setting": "L929 cells; 72 hours, dose 0.1 μM", "result": 0, "unit": "%"},
      {"measurement": "inhibition at 1 µM", "setting": "L929 cells; 72 hours, dose 1.0 μM", "result": 0, "unit": "%"},
      {"measurement": "inhibition at 10 µM", "setting": "L929 cells; 72 hours, dose 10.0 μM", "result": 0, "unit": "%"},
      {"measurement": "inhibition at 50 µM", "setting": "L929 cells; 72 hours, dose 50.0 μM", "result": 37.4, "unit": "%"},
      {"measurement": "antiparasitic activity, in words", "setting": "Toxoplasma gondii; 24 and 48 hours, all concentrations tested", "result": "significant antiparasitic activity"},
      {"measurement": "Activity, Score", "setting": "Toxoplasma gondii; 24 hours, dose 0.1 μM", "result": "2 (>20%-≤40%)"},
      {"measurement": "Activity, Mean", "setting": "Toxoplasma gondii; 24 hours, dose 0.1 μM", "result": 6079},
      {"measurement": "Activity, Score", "setting": "Toxoplasma gondii; 24 hours, dose 1.0 μM", "result": "3 (>40%-≤70%)"},
      {"measurement": "Activity, Mean", "setting": "Toxoplasma gondii; 24 hours, dose 1.0 μM", "result": 2668},
      {"measurement": "Activity, Score", "setting": "Toxoplasma gondii; 24 hours, dose 10.0 μM", "result": "4 (>70%-≤90%)"},
      {"measurement": "Activity, Mean", "setting": "Toxoplasma gondii; 24 hours, dose 10.0 μM", "result": 1967},
      {"measurement": "Activity, Score", "setting": "Toxoplasma gondii; 24 hours, dose 50.0 μM", "result": "4 (>70%-≤90%)"},
      {"measurement": "Activity, Mean", "setting": "Toxoplasma gondii; 24 hours, dose 50.0 μM", "result": 2104},
      {"measurement": "Activity, Score", "setting": "Toxoplasma gondii; 48 hours, dose 0.1 μM", "result": "1 (≤20%)"},
      {"measurement": "Activity, Mean", "setting": "Toxoplasma gondii; 48 hours, dose 0.1 μM", "result": 14841},
      {"measurement": "Activity, Score", "setting": "Toxoplasma gondii; 48 hours, dose 1.0 μM", "result": "1 (≤20%)"},
      {"measurement": "Activity, Mean", "setting": "Toxoplasma gondii; 48 hours, dose 1.0 μM", "result": 12880},
      {"measurement": "Activity, Score", "setting": "Toxoplasma gondii; 48 hours, dose 10.0 μM", "result": "4 (>70%-≤90%)"},
      {"measurement": "Activity, Mean", "setting": "Toxoplasma gondii; 48 hours, dose 10.0 μM", "result": 4428},
      {"measurement": "Activity, Score", "setting": "Toxoplasma gondii; 48 hours, dose 50.0 μM", "result": "4 (>70%-≤90%)"},
      {"measurement": "Activity, Mean", "setting": "Toxoplasma gondii; 48 hours, dose 50.0 μM", "result": 1808},
      {"measurement": "antiparasitic activity, in words", "setting": "Toxoplasma gondii; 72 hours, 1 μM and above", "result": "significant activity"},
      {"measurement": "Activity, Score", "setting": "Toxoplasma gondii; 72 hours, dose 0.1 μM", "result": "1 (≤20%)"},
      {"measurement": "Activity, Mean", "setting": "Toxoplasma gondii; 72 hours, dose 0.1 μM", "result": 6934},
      {"measurement": "Activity, Score", "setting": "Toxoplasma gondii; 72 hours, dose 1.0 μM", "result": "1 (≤20%)"},
      {"measurement": "Activity, Mean", "setting": "Toxoplasma gondii; 72 hours, dose 1.0 μM", "result": 6219},
      {"measurement": "Activity, Score", "setting": "Toxoplasma gondii; 72 hours, dose 10.0 μM", "result": "4 (>70%-≤90%)"},
      {"measurement": "Activity, Mean", "setting": "Toxoplasma gondii; 72 hours, dose 10.0 μM", "result": 1321},
      {"measurement": "Activity, Score", "setting": "Toxoplasma gondii; 72 hours, dose 50.0 μM", "result": "4 (>70%-≤90%)"},
      {"measurement": "Activity, Mean", "setting": "Toxoplasma gondii; 72 hours, dose 50.0 μM", "result": 1252},
      {"measurement": "inhibition at 1 µM", "setting": "Toxoplasma gondii; 24 hours, dose 1.0 μM", "result": 69.6, "unit": "%"},
      {"measurement": "inhibition at 10 µM", "setting": "Toxoplasma gondii; 24 hours, dose 10.0 μM", "result": 77.6, "unit": "%"},
      {"measurement": "inhibition at 50 µM", "setting": "Toxoplasma gondii; 24 hours, dose 50.0 μM", "result": 76, "unit": "%"},
      {"measurement": "inhibition at 0.1 µM", "setting": "Toxoplasma gondii; 48 hours, dose 0.1 μM", "result": 6.18, "unit": "%"},
      {"measurement": "inhibition at 1 µM", "setting": "Toxoplasma gondii; 48 hours, dose 1.0 μM", "result": 18.6, "unit": "%"},
      {"measurement": "inhibition at 10 µM", "setting": "Toxoplasma gondii; 48 hours, dose 10.0 μM", "result": 72, "unit": "%"},
      {"measurement": "inhibition at 50 µM", "setting": "Toxoplasma gondii; 48 hours, dose 50.0 μM", "result": 88.6, "unit": "%"},
      {"measurement": "inhibition at 0.1 µM", "setting": "Toxoplasma gondii; 72 hours, dose 0.1 μM", "result": 3.24, "unit": "%"},
      {"measurement": "inhibition at 1 µM", "setting": "Toxoplasma gondii; 72 hours, dose 1.0 μM", "result": 13.2, "unit": "%"},
      {"measurement": "inhibition at 10 µM", "setting": "Toxoplasma gondii; 72 hours, dose 10.0 μM", "result": 81.6, "unit": "%"},
      {"measurement": "inhibition at 50 µM", "setting": "Toxoplasma gondii; 72 hours, dose 50.0 μM", "result": 82.5, "unit": "%"}
    ]}
  ]
}
